ChEMBL document CHEMBL1137818, “Structure and spasmolytic activity of eucalyptanoic acid from Eucalyptus camaldulensis var. obtusa and synthesis of its active derivative from oleanolic acid” (2002)

Tests used:
Jejunum [1] = experiment: Spasmolytic activity in rabbit jejunum assessed as inhibition of K+-induced muscle contraction at 1 mg/mL after 30 mins; assay type: functional; settings: Oryctolagus cuniculus, 0.5 h
Jejunum [2] = experiment: Spasmolytic activity in rabbit jejunum assessed as inhibition of calcium influx-mediated spontaneous muscle contraction at 1 mg/mL after 30 mins; assay type: functional; settings: Oryctolagus cuniculus, 0.5 h

| Compound | inhibition at 1000 µg/mL (Jejunum [1]) [%] | inhibition at 1000 µg/mL (Jejunum [2]) [%] |
| --- | --- | --- |
| COC(=O)[C@]12CCC(C)(C)C[C@@H]1C1=CC=C3[C@@]4(C)CC[C@H](OC(C)=O)C(C)(C)[C@@H]4CC[C@@]3(C)[C@]1(C)CC2 [METHYLACETYLEUCALYPTANOATE] | 85.9 | 95.3 |
| COC(=O)[C@]12CCC(C)(C)C[C@@H]1C1=CC[C@@H]3[C@@]4(C)CC[C@H](OC(C)=O)C(C)(C)[C@@H]4CC[C@@]3(C)[C@]1(C)CC2 [METHYL ACETYL OLEANOLATE] | 35.5 | 67.7 |
| CC1(C)CC[C@]2(C(=O)O)CC[C@]3(C)C(=CC=C4[C@@]5(C)CC[C@H](O)C(C)(C)[C@@H]5CC[C@]43C)[C@H]2C1 [EUCALYPTANOIC ACID] | 31.1 | 58.2 |
